Literature values in paper PMC12154426, “TPP-Based Nanovesicles Kill MDR Neuroblastoma Cells and Induce Moderate ROS Increase, While Exerting Low Toxicity Towards Primary Cell Cultures: An In Vitro Study” (International Journal of Molecular Sciences, 2025).
Like-named read-outs stand apart in the source and are kept apart here.

Key:
Hela = system: Hela; parameters: method as in PMID 36084362; details: 24 h exposure, cited from earlier work
[1] = parameters: method as in PMID 36084362; details: MFC-7, 24 h exposure, cited from earlier work
A-375 cancer cells = system: A-375 cancer cells; parameters: method as in PMID 28151482; details: 24 h exposure; 30 µM vemurafenib, 50 µM TRAM-34, or their combination; cited from earlier work

Molecule	IC50 (Hela; PDT/SDT) [µM]	IC50 (Hela; PDT) [µM]	IC50 (Hela; SDT) [µM]	IC50 ([1]; PDT/SDT) [µM]	IC50 ([1]; PDT) [µM]	IC50 ([1]; SDT) [µM]	ROS increase with respect to the control (A-375 cancer cells)
2,9,16,23-tetrakis(N-(N-butyl-4-triphenyl-phosphonium)-pyridine-4-yloxy) Zn(II) Pc [compound 3]	12.7	21.8	14.3	13.2	43.3	18.2	–
2,9,16,23-tetrakis-(N-(N-butyl-4-triphenyl-phosphonium)-morpholino) Zn(II) Pc [compound 4]	14.4	25.6	17.2	15.5	45	20.5	–
Clc1ccccc1C(c1ccccc1)(c1ccccc1)n1cccn1 [TRAM-34]	–	–	–	–	–	–	~30%
CCCS(=O)(=O)Nc1ccc(F)c(C(=O)c2c[nH]c3ncc(-c4ccc(Cl)cc4)cc23)c1F [vemurafenib]	–	–	–	–	–	–	about 38%
